From patent US12220400B2, “Amino acid compositions and methods for treating cystic fibrosis” (UNIVERSITY OF FLORIDA RESEARCH FOUNDATION, INCORPORATED, priority 2018, dated 2025)

System: HBEC-F508del
Assay: Transepithelial short-circuit anion current in HBEC-F508del, Example 3
Type: cell-based, human
Method: Methods: Transepithelial short-circuit current and ^36Cl net flux (Jnet) were measured in differentiated HBEC-F508del bathed in vehicle (no AA), AA test formulation (CF5AA-3) or AA negative control (NC; CF4AA-3) in Ussing chambers. Cells were treated with C18 (VX809-analogue), VX661 or DMSO for 24 hours. After blocking ENaC with benzamil, chloride secretion was stimulated using GLPG1837 (VX770-analogue) with or without forskolin. CFTRinh-172, CaCCinh-A01 or bumetanide were added to distinguish CFTR-, TMEM16A- and NKCC1-sensitive chloride currents, respectively. Western blot was performed on HBEC-F508del membrane fractions to determine apical CFTR expression.

Structure (SMILES): CC(C)(CO)c1cc2cc(NC(=O)C3(c4ccc5c(c4)OC(F)(F)O5)CC3)c(F)cc2n1C[C@@H](O)CO [VX661, tezacaftor]
- basal anion current (corrector pretreatment 24 hours, cells bathed in vehicle (no AA)): 1.5±0.2 μA
- peak anion current after stimulation with forskolin and GLPG1837 (forskolin and GLPG1837): 7.9±0.7 μA
